SMILES	melting point [°C]
CC(C)c1nc(CN(C)C(=O)N[C@H](C(=O)N[C@@H](Cc2ccccc2)C[C@H](O)[C@H](Cc2ccccc2)NC(=O)OCc2cnc(C(C)C)s2)C(C)C)cs1	64 to 66
Cc1ccc(-c2nnc(-c3ccco3)s2)cc1	111 to 113
Cc1nc(N)nc(N)c1CCC(C)c1ccc(Cl)cc1 (stereo not given)	125 to 128
O=[N+]([O-])c1ccc(-c2cc[nH]n2)cc1	196 to 197
Nc1ccc(-c2cc(OCC(=O)N3CCOCC3)c3ccccc3n2)cc1	174
COC(=O)c1c(Cc2ccc(S(=O)(=O)NCCO)cc2)c(=O)c2ccc(Cl)cc2n1-c1ccccc1	192 to 193
Cc1ccc(C(=O)NC2CCN(CCCCl)CC2)cc1	150 to 152
COc1ccc(/C=C/C(=O)/C=C/c2ccc(OC)c(O)c2)cc1O	195 to 197
CC(=O)NC1(C)CCN(CCCOc2ccc(F)cc2)CC1	103
CC(=O)c1cccc(-c2c(C)c(NC(=O)CC(C)(C)C)c(C)c3c2OCC3c2ccc(C(C)C)cc2)c1 (stereo not given)	209 to 210
O=C(O)CC1(C(=O)O)CCSc2ccccc21 (stereo not given)	168 to 170
COc1ccc2c(c1)C(C(=O)N(Cc1ccc(NCc3ccccc3)cc1)c1ccc(C(C)C)cc1)CCC2 (stereo not given)	135 to 138
Cc1cc(-c2ccccc2)n2nc(S(C)(=O)=O)nc2n1	158 to 159
Cc1cc(C)c2c(c1O)C(=O)C(c1ccccc1)C2 (stereo not given)	90.5 to 91
Cn1cc(C(=O)NCc2ccc(Cl)cc2)c(=O)c2cc(CN3CC[C@@H](O)C3)oc21	189 to 190
O=S(=O)(NN1CCCCC1)c1ccc(S)cc1	93
CC(C)(C)OC(=O)Nc1cc(N2CCC(OCCOC3CCCCO3)CC2)c(-c2ccc(F)cc2)cc1NC(=O)CC(=O)c1cccc(-n2ccnc2)c1 (racemic)	57 to 58
O=C(Cc1ccsc1)Nc1ncc(Cl)cc1Cl	159 to 160
Cc1[nH]cnc1CC1CCc2c(C)c3cc(Cl)ccc3n2C1=O (stereo not given)	244 to 246
CC(C)(C)OC(=O)NC(C(=O)Oc1ccc(/C=c2\[nH]c(=O)/c(=C/c3ccccc3)[nH]c2=O)nc1)c1ccccc1 (stereo not given)	198
CCCCCC[C@@H]1C(=O)O[C@H]1OC(=O)N(CCCCC)c1ccccc1Oc1ccccc1 (relative stereo)	63.1 to 66.3
Cn1c(=O)ccc2cc(COc3cccc(C4(C#N)CCOCC4)c3)ccc21	149 to 150
NC(c1ccc2c(c1)OCO2)P(O)O (stereo not given)	235 to 236
COc1ccc(N=C(C#Cc2ccccc2)N2CCN(Cc3ccc(C)cc3)CC2)cc1Cl	113
O=C(Nc1cccc(CN2C(=O)[C@H]3CCC[C@H]3N(C(=O)CN3C(=O)c4ccccc4C3=O)c3ccccc32)c1)c1ccccc1 (relative stereo)	244 to 246

SMILES	melting point [°C]
CCOP(=O)(OCC)c1ccc2cccc(-c3cccc4ccccc34)c2n1	128
OCCC1(c2ccccc2)CCNC1 (stereo not given)	106 to 110
CC1CN(c2ccc([N+](=O)[O-])cc2Cl)C(=O)O1 (stereo not given)	73 to 75
CCCNc1nc(N)c2ncn(C3CCCCC3)c2n1	155 to 156
Cc1c(-c2ccc3oc(SCc4ccccn4)nc3c2)nc2ccccn12	116 to 118
O=C(NC(=O)c1c(F)cccc1Cl)Nc1ccc(S(=O)(=O)C(F)(F)C(F)F)cc1F	176 to 177
CCCOc1ccc(S(=O)(=O)N2CCN(CC)CC2)cc1C(=O)Nc1c(C(N)=O)nn(Cc2ccccn2)c1CC	191 to 192
CC(C)c1cccc(C(C)C)c1NC(=O)NC1CC(C)(C)c2ccccc2C1(C)C (stereo not given)	180 to 181
COc1nc(C)c(C)nc1NC(=O)N1CCN(c2ccccc2C(C)C)CC1	165 to 167
CC(C)(C)C(=O)Nc1nc(Nc2cccc(Br)c2)c2c(n1)[nH]c1ccccc12	287 to 288
CCCC(=O)N1CCc2nnc(NN=C(C)C)cc2C1	152 to 154
CN1C(=O)N(C)C(O)(c2ccccc2)c2cc(Cl)ccc21 (stereo not given)	174 to 176
CC(C)(Br)c1ccc2occ(C#N)c(=O)c2c1	115 to 117
COc1cc(N)c(Cl)cc1C(=O)NCC1CCN(CCCCCC(=O)c2ccccc2)CC1	138 to 141
CC(=O)C1=C(O)C(=C(C)Nc2cc(NS(C)(=O)=O)cc(NS(C)(=O)=O)c2)C(=O)OC1=O	260
OC1(C#Cc2cc(Cl)ccc2Cl)CN2CCC1CC2 (stereo not given)	197 to 200
Cc1cnc(-c2ccc3c(c2)c2cc(-c4ccc(Cl)cc4Cl)c(=O)n(C)c2n3C)o1	289 to 292
CC1(C)COc2ccc(S(=O)(=O)n3c(Cc4ccccc4C(=O)O)cc4cc(Cl)ccc43)cc21	190
COC(=O)C1(C(=O)Nc2ccc(Br)cc2C)CC1	106 to 108
COc1cc2c(cc1Nc1ncc(Cl)c(Nc3ccc(N4CCOCC4)cc3)n1)CCN(CC(=O)N(C)C)CC2	227 to 242
CC(=O)NCC1CC(c2cc(F)c(F)c(F)c2)=NO1 (stereo not given)	136 to 137
CC(C)c1ccc(N)nn1	131 to 132
COc1ncc(Br)cc1C(O)C=Cc1ccc(Cl)c(Cl)c1 (stereo not given)	149 to 150
Cc1nn(-c2ccccc2)c(-c2ccccc2)c1CC(=O)O	159 to 161
N#CCc1nc(N)nc(N)c1-c1ccc(Cl)cc1Cl	249 to 251

SMILES	melting point [°C]
CNc1nc(C)c(C(=O)c2sc(NC)nc2C)s1	184 to 185
CCOc1ccc(-c2ccc(=O)[nH]n2)cc1OC	172
Cc1c(NC(=O)c2ccc(-c3ccccc3F)c(F)c2)ccc2cc(CN3CCCC3)cnc12	139 to 140
OC1(c2ccc(Cl)cc2)CCN(CCCOc2ccc(F)cc2)CC1	134 to 135
CC(C)(C)c1cc(CCc2ccccc2NC(=O)N2CCOCC2)cc(C(C)(C)C)c1O	186 to 189
CCCCNC(=O)NCCc1nc(-c2ccc(-c3ccccc3)cc2)c[nH]1	178
N#CCc1cccc(Cc2nc3c(F)c(F)cc(F)c3s2)c1Cl	148 to 151
O=C(Nc1ccc2ccc(Cl)nc2n1)c1cccs1	244
N#Cc1c(SC(F)(F)F)c(N)n(-c2ccc(C(F)(F)F)cc2)c1Br	152
O=C(O)c1cn(-c2cccc(F)c2)c2c(F)c(F)c(F)cc2c1=O	89 to 91
O=C(O)Cc1cccc(Cn2cc(C3c4ccccc4C=Cc4ccccc43)c(=S)[nH]c2=O)c1	135 to 137
CC1(C)CC(c2ccccn2)c2cc(C(N)=O)ccc2O1 (stereo not given)	96 to 98
BrCc1ccc2c(c1)CCO2	57 to 60
O=C1CCc2ccc(OCCCl)cc21	76 to 80
O=C(Nc1cccc(C(F)(F)F)c1)NC1CCN(S(=O)(=O)c2ccc(Cl)cc2)CC1	116 to 118
CC(C)n1c(-c2ccccc2)cc(-c2ccc(F)cc2)c1C=O	118 to 122
Cc1nc2c(s1)-c1nc(N)ncc1CC2	241 to 243
COc1ccc(C(=O)OC2C=C(C)C(=O)CC(C)(C)C2O)cc1 (stereo not given)	108 to 110
CCOC(C)O[C@H]1C(=O)N(C(=O)Nc2ccccc2)[C@H]1c1ccccc1 (stereo not given in full)	152 to 155
CNC(=O)C(Cc1ccc(O)cc1)NC(=O)Nc1n[nH]c(=S)s1 (stereo not given)	198 to 200
O=C(Nc1ccncn1)Nc1cccc2c1C1CCCCN1C2=O (stereo not given)	218
CCN(CC)C(=O)Oc1cc(CN/C=C2\C(=O)NC(=O)c3ccc(I)cc32)ccc1OC	128 to 130
C#Cc1cn(C2CC(OC(C)=O)C(COC(C)=O)O2)c(=O)[nH]c1=O (stereo not given)	152 to 154
C=NOC(c1ccc(C(=O)O)cc1)c1c(C)nn(C)c1Oc1ccccc1 (stereo not given)	183
CC(C)=CCN(CC=C(C)C)Cc1noc(-c2ncn3c2[C@@H]2CCN2C(=O)c2ccccc2-3)n1	119 to 122

SMILES	melting point [°C]
CCCc1cc(CCC)c2oc(C(=O)c3ccc(OC)cc3)c(C)c2c1O	119 to 121
O=C(NCc1ccccn1)c1cc(OCC(F)(F)F)ccc1OCC(F)(F)F	100 to 103
CN(C)CCNc1c2nc3ccccc3c-2n(C)c2ccccc12	162 to 164
NC1=NC(c2ccc(OC(F)F)cc2)(c2cccc(-c3cccnc3F)c2)C2=NCCCN12 (stereo not given)	104 to 114
CNCc1nc(-c2ncn3c2[C@@H]2CCN2C(=O)c2cc(F)ccc2-3)no1	155 to 160
CN(c1ncccc1[N+](=O)[O-])C1CCNCC1	116 to 117
CC12C=CC(=O)C=C1CCC1C2C(=O)CC2(C)C(C(=O)CO)CCC12 (stereo not given)	203 to 206
CCOC(=O)c1cc(F)c2c(c1Cl)C(OCCF)CCS2(=O)=O (stereo not given)	87 to 89
O=c1[nH]ccc2ncccc12	156 to 159
CCCn1nc2c(N)nc3ccccc3c2c1CC(C)(C)NC(=O)c1ccncc1	148 to 150
CCCCCC1CCC2c3ccc(OCC)c(F)c3OC2C1 (stereo not given)	118
NC(=O)c1cccc(-c2noc(-c3ccccc3F)n2)c1	231 to 234
O=C(O)c1cn(C2CC2)c2c(F)c(N3CC4CC3CN4)c(F)cc2c1=O (stereo not given)	288 to 290
Fc1cccc(C(c2ccc3nccnc3c2)n2ccnc2)c1 (stereo not given)	110
O=C(Nc1nnn[nH]1)c1ccc(OCCn2ccnc2)cc1	263
CN1C(=O)CC2(CNC(=O)C2)C1=O (stereo not given)	201 to 204
O=S(=O)(N[C@H](CO)[C@@H](c1ccccc1)C(F)(F)F)c1ccc(Cl)cc1	129 to 131
OCc1cnoc1-c1ccc(Cl)cc1Cl	76 to 77
CC(=NO)c1ccc2nnn(Cc3ccc4ncccc4c3)c2n1	259 to 261
CCNc1cc(-c2c[nH]c(S)n2)ccn1	> 260
CN(CCOc1ccccc1)[C@H]1CC[C@H](c2ccc(OCc3ccccc3)cc2)CC1	67 to 69
Cn1c(=O)[nH]c2nc3ccc(OCCCC(=O)O)cc3cc21	286 to 288
CC1(C)CC(=C(c2ccc(O)cc2)c2ccc(CCO)cc2)CC(C)(C)C1	159 to 160
CCOC(=O)CCCN1CCn2nc(C(=O)O)cc2C1=O	175
CCCCCCOc1c(OC)cc(N)c2ncccc12	168 to 171

Source: a melting point compilation (Tetko et al.; mined from patent text by program, amines drawn as free bases though some values may be those of a salt)
